According to ChEMBL document CHEMBL4052598, “Discovery of C-Glycosylpyranonaphthoquinones in Streptomyces sp. MBT76 by a Combined NMR-Based Metabolomics and Bioinformatics Workflow” (2017):
The source made the active and inactive calls. The calls are words filed in the database; no cut-off is given here.

How the values were obtained:
Type in all cases: functional
Pseudomonas aeruginosa = assay: Antimicrobial activity against Pseudomonas aeruginosa PAO1 assessed as growth inhibition zone after 18 hrs by disc diffusion method
Staphylococcus aureus = assay: Antimicrobial activity against Staphylococcus aureus CECT976 assessed as growth inhibition zone after 18 hrs by disc diffusion method
Bacillus subtilis = assay: Antimicrobial activity against Bacillus subtilis subsp. subtilis str. 168 assessed as growth inhibition zone after 18 hrs by disc diffusion method
Escherichia coli = assay: Antimicrobial activity against Escherichia coli JM109 assessed as growth inhibition zone after 18 hrs by disc diffusion method

Structure (SMILES)	inhibition (Pseudomonas aeruginosa)	inhibition (Staphylococcus aureus)	inhibition (Bacillus subtilis)	inhibition (Escherichia coli)	inhibition zone (IZ) (Pseudomonas aeruginosa)	inhibition zone (IZ) (Staphylococcus aureus)	inhibition zone (IZ) (Bacillus subtilis)	inhibition zone (IZ) (Escherichia coli)
CN[C@H]1CC[C@H](c2ccc(O)c3c2C(=O)C24OC2([C@@H](C)O[C@@H]2CC(=O)O[C@@H]24)[C@H]3O)O[C@@H]1C (stereo partly specified)	inactive	Active	Active	inactive	–	–	–	–
CN[C@H]1CC[C@H](c2ccc(O)c3c2C(=O)C24OC2([C@@H](C)O[C@H](CC(=O)O)[C@@H]4O)[C@H]3O)O[C@@H]1C (stereo partly specified)	inactive	Active	Active	inactive	–	–	–	–
CC1(C)S[C@@H]2[C@H](NC(=O)[C@H](N)c3ccccc3)C(=O)N2[C@H]1C(=O)O [AMPICILLIN]	–	–	–	–	7 mm	10 mm	23 mm	20 mm
CN[C@@H]1[C@@H](O[C@H]2O[C@H](CO)[C@@H](N)[C@H](O)[C@H]2O)OC2C[C@@H](N)[C@@H](O[C@H]3[C@H](O)[C@@H](O)[C@H](N)C[C@@H]3N)OC2[C@@H]1O (stereo partly specified) [APRAMYCIN]	–	–	–	–	15 mm	7 mm	10 mm	7 mm
